Test results reported in patent EP4737454A1, “GLP-1 RECEPTOR AGONIST, AND PREPARATION METHOD THEREFOR AND USE THEREOF” (Wayne Biotechnology Co., Ltd., priority 2023, dated 2025).
pEC50: −log10 of the molar value.

Each compound was assayed against Human GLP-1R (Homo sapiens, UniProt P43220) (assay: cAMP level determination in human GLP-1R stably transfected HEK293T cells (HTRF cAMP kit)). Conditions: 37°C 30 min.
Format: cell-based
Protocol: Human GLP-1R HEK293T stably transfected cells were digested with trypsin, terminated with DMEM total (without p/s), centrifuged and washed twice with 1X Stimulation buffer, then resuspended in 1X stimulation buffer and counted. The cells were then prepared as a 1 Million/mL cell suspension in stimulation buffer. Compound powder was first prepared as a 10 mM stock solution in DMSO, then diluted to 2 mM with DMSO, and further prepared as 2X compound in 1X stimulation buffer (Cisbio kit buffer with freshly added IBMX at a final concentration of 0.5 mM). The top dose final concentration was 2000 nM, with a final DMSO concentration of 0.2%, diluted in a 1:3 gradient for 11 gradients.
According to the layout, 5 µl of compound was added to each well; Min wells contained 100 nM GLP-1, and Max wells contained 0.2% DMSO in 1X stimulation buffer. 5 µl of cell suspension was added to each well, centrifuged at 300 rpm at room temperature for 1 min, then incubated at 37°C for 30 min. 2X cAMP standards were prepared in 1X Stimulation buffer, with a top final concentration of 2.8 µM, diluted in a 1:3 gradient for 12 doses. According to the layout, 10 µl was added to each well. Finally, d2 and antibody were diluted 20-fold in 1X Detection buffer (Cisbio kit buffer), and 5 µl of each was added to each well according to the layout. After centrifugation at 300 rpm at room temperature for 1 min, the plate was incubated at room temperature for 2 hr.
Stimulation% was calculated based on Min and Max readings (665nm/615nm ratio) using the formula: 100*(ratio Max well - ratio test well)/(ratio Max well - ratio Min well). The cAMP concentration in each test well was derived from the cAMP standard curve, and the data was analyzed using GraphPad Prism 9 to plot four-parameter fit curves and calculate EC50 values using the formula: Y=Bottom + (Top-Bottom)/(1+10^((LogEC50-X)*HillSlope)). Table 1: cAMP Level Determination in Human GLP-1R Stably Transfected HEK293T Cells

Sequence of Human GLP-1R (P43220 24-463): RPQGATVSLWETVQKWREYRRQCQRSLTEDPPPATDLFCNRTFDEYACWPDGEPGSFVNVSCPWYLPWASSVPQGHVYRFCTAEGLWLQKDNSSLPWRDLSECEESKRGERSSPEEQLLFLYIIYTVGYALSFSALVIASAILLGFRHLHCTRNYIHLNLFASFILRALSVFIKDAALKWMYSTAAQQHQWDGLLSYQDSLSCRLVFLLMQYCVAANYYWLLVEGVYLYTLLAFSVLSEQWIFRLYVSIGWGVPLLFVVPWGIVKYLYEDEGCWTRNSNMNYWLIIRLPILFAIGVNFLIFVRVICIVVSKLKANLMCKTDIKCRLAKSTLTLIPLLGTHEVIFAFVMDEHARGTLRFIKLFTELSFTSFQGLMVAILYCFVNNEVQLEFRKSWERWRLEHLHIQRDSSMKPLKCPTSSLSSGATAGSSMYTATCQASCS

Row | Compound | pEC50
1 | Cc1cc(-n2nc3c(c2-n2ccn(-c4ccc(C(=O)N(C)C5CC5)cc4C#N)c2=O)[C@H](C)N(C(=O)c2cc4cc(C5CCOC(C)(C)C5)ccc4n2[C@@]2(c4nc(=O)o[nH]4)C[C@@H]2C)CC3)cc(C)c1F (stereo partly drawn) [Compound 36] | 7.17
2 | Cc1cc(-n2nc3c(c2-n2ccn(-c4ccc(C(F)(F)F)c(C(=O)N(C)C5CC5)c4)c2=O)[C@H](C)N(C(=O)c2cc4cc(C5CCOC(C)(C)C5)ccc4n2[C@@]2(c4nc(=O)o[nH]4)C[C@@H]2C)CC3)cc(C)c1F (stereo partly drawn) [Compound 37] | 7.73
3 | Cc1cc(-n2nc3c(c2-n2ccn(-c4ccc(OC(F)(F)F)c(C(=O)N(C)C5CC5)c4)c2=O)[C@H](C)N(C(=O)c2cc4cc(C5CCOC(C)(C)C5)ccc4n2[C@@]2(c4nc(=O)o[nH]4)C[C@@H]2C)CC3)cc(C)c1F (stereo partly drawn) [Compound 38] | 7.74
4 | Cc1cc(-n2nc3c(c2-n2ccn(-c4ccccc4C(=O)N(C)C4CC4)c2=O)[C@H](C)N(C(=O)c2cc4cc(C5CCOC(C)(C)C5)ccc4n2[C@@]2(c4nc(=O)o[nH]4)C[C@@H]2C)CC3)cc(C)c1F (stereo partly drawn) [Compound 39] | 7.95
5 | Cc1cc(-n2nc3c(c2-n2ccn(-c4c(F)cccc4C(=O)N(C)C4CC4)c2=O)[C@H](C)N(C(=O)c2cc4cc(C5CCOC(C)(C)C5)ccc4n2[C@@]2(c4nc(=O)o[nH]4)C[C@@H]2C)CC3)cc(C)c1F (stereo partly drawn) [Compound 40] | 6.81
6 | Cc1cc(-n2nc3c(c2-n2ccn(-c4ccc(C(=O)N(C)C5CC5)c(OCC5CC5)c4)c2=O)[C@H](C)N(C(=O)c2cc4cc(C5CCOC(C)(C)C5)ccc4n2[C@@]2(c4nc(=O)o[nH]4)C[C@@H]2C)CC3)cc(C)c1F (stereo partly drawn) [Compound 43] | 7.88
7 | Cc1cc(-n2nc3c(c2-n2ccn(-c4ccc(C(=O)N(C)CC#N)cc4)c2=O)[C@H](C)N(C(=O)c2cc4cc(C5CCOC(C)(C)C5)ccc4n2[C@@]2(c4nc(=O)o[nH]4)C[C@@H]2C)CC3)cc(C)c1F (stereo partly drawn) [Compound 44] | 7.77
8 | Cc1cc(-n2nc3c(c2-n2ccn(-c4cccc(C(=O)N(C)C5CC5)c4)c2=O)[C@H](C)N(C(=O)c2cc4cc(C5CCOC(C)(C)C5)ccc4n2[C@@]2(c4nc(=O)o[nH]4)C[C@@H]2C)CC3)cc(C)c1F (stereo partly drawn) [Compound 45] | 7.39
9 | Cc1cc(-n2nc3c(c2-n2ccn(-c4ccc(C(=O)NC5CC5)cc4)c2=O)[C@H](C)N(C(=O)c2cc4cc(C5CCOC(C)(C)C5)ccc4n2[C@@]2(c4nc(=O)o[nH]4)C[C@@H]2C)CC3)cc(C)c1F (stereo partly drawn) [Compound 46] | 7.11
10 | Cc1cc(-n2nc3c(c2-n2ccn(-c4cccc(C(=O)NC5CC5)c4)c2=O)[C@H](C)N(C(=O)c2cc4cc(C5CCOC(C)(C)C5)ccc4n2[C@@]2(c4nc(=O)o[nH]4)C[C@@H]2C)CC3)cc(C)c1F (stereo partly drawn) [Compound 47] | 7.19
11 | Cc1cc(-n2ccn(-c3c4c(nn3-c3cc(C)c(F)c(C)c3)CCN(C(=O)c3cc5cc([C@H]6CCOC(C)(C)C6)ccc5n3[C@@]3(c5nc(=O)o[nH]5)C[C@@H]3C)[C@H]4C)c2=O)ccc1C(=O)N(C)C1CC1 [Compound 50] | 7.94
12 | Cc1cc(-n2nc3c(c2-n2ccn(-c4ccc(C(=O)N(C)C5(C)CC5)c(F)c4)c2=O)[C@H](C)N(C(=O)c2cc4cc(C5CCOC(C)(C)C5)ccc4n2[C@@]2(c4nc(=O)o[nH]4)C[C@@H]2C)CC3)cc(C)c1F (stereo partly drawn) [Compound 51] | 8.06
13 | Cc1cc(-n2nc3c(c2-n2ccn(-c4cc(F)c(C(=O)N(C)C5CC5)c(F)c4)c2=O)[C@H](C)N(C(=O)c2cc4cc(C5CCOC(C)(C)C5)ccc4n2[C@@]2(c4nc(=O)o[nH]4)C[C@@H]2C)CC3)cc(C)c1F (stereo partly drawn) [Compound 52] | 7.96
14 | Cc1cc(-n2nc3c(c2-n2ccn(-c4ccc(C(=O)N5CCC5)c(F)c4)c2=O)[C@H](C)N(C(=O)c2cc4cc(C5CCOC(C)(C)C5)ccc4n2[C@@]2(c4nc(=O)o[nH]4)C[C@@H]2C)CC3)cc(C)c1F (stereo partly drawn) [Compound 53] | 7.59
15 | Cc1cc(-n2nc3c(c2-n2ccn(-c4ccc(C(=O)N(C)C5CC5)c(OC(F)(F)F)c4F)c2=O)[C@H](C)N(C(=O)c2cc4cc([C@H]5CCOC(C)(C)C5)ccc4n2[C@@]2(c4nc(=O)o[nH]4)C[C@@H]2C)CC3)cc(C)c1F [Compound 54] | 8.35
16 | Cc1cc(-n2nc3c(c2-n2ccn(-c4ccc5c(c4)CCN(C4CC4)C5=O)c2=O)[C@H](C)N(C(=O)c2cc4cc(C5CCOC(C)(C)C5)ccc4n2[C@@]2(c4nc(=O)o[nH]4)C[C@@H]2C)CC3)cc(C)c1F (stereo partly drawn) [Compound 55] | 8.09
17 | Cc1cc(-n2nc3c(c2-n2ccn(-c4ccc5c(c4)CCS5(=O)=O)c2=O)[C@H](C)N(C(=O)c2cc4cc([C@@H]5CCOC(C)(C)C5)ccc4n2[C@@]2(c4nc(=O)o[nH]4)C[C@@H]2C)CC3)cc(C)c1F [Compound 56a] | 6.62

Row | Compound | pEC50
18 | Cc1cc(-n2nc3c(c2-n2ccn(-c4ccc5c(c4)CCS5(=O)=O)c2=O)[C@H](C)N(C(=O)c2cc4cc([C@H]5CCOC(C)(C)C5)ccc4n2[C@@]2(c4nc(=O)o[nH]4)C[C@@H]2C)CC3)cc(C)c1F [Compound 56b] | 8.25
19 | Cc1cc(-n2nc3c(c2-n2ccn(-c4ccc5c(c4)S(=O)(=O)CC5)c2=O)[C@H](C)N(C(=O)c2cc4cc(C5CCOC(C)(C)C5)ccc4n2[C@@]2(c4nc(=O)o[nH]4)C[C@@H]2C)CC3)cc(C)c1F (stereo partly drawn) [Compound 57] | 7.80
20 | Cc1cc(-n2nc3c(c2-n2ccn(-c4ccc5c(c4)CCCS5(=O)=O)c2=O)[C@H](C)N(C(=O)c2cc4cc(C5CCOC(C)(C)C5)ccc4n2[C@@]2(c4nc(=O)o[nH]4)C[C@@H]2C)CC3)cc(C)c1F (stereo partly drawn) [Compound 58] | 8.00
21 | Cc1cc(-n2nc3c(c2-n2ccn(-c4ccc5c(c4)S(=O)(=O)CCC5)c2=O)[C@H](C)N(C(=O)c2cc4cc(C5CCOC(C)(C)C5)ccc4n2[C@@]2(c4nc(=O)o[nH]4)C[C@@H]2C)CC3)cc(C)c1F (stereo partly drawn) [Compound 59] | 7.82
22 | Cc1cc(-n2nc3c(c2-n2ccn(-c4ccc5c(c4F)CCS5(=O)=O)c2=O)[C@H](C)N(C(=O)c2cc4cc(C5CCOC(C)(C)C5)ccc4n2[C@@]2(c4nc(=O)o[nH]4)C[C@@H]2C)CC3)cc(C)c1F (stereo partly drawn) [Compound 60] | 7.97
23 | Cc1cc(-n2nc3c(c2-n2ccn(-c4cc5c(cc4F)S(=O)(=O)CC5)c2=O)[C@H](C)N(C(=O)c2cc4cc(C5CCOC(C)(C)C5)ccc4n2[C@@]2(c4nc(=O)o[nH]4)C[C@@H]2C)CC3)cc(C)c1F (stereo partly drawn) [Compound 61] | 7.97
24 | Cc1cc(-n2nc3c(c2-n2ccn(-c4ccc5c(c4)C=CS5(=O)=O)c2=O)[C@H](C)N(C(=O)c2cc4cc(C5CCOC(C)(C)C5)ccc4n2[C@@]2(c4noc(=O)[nH]4)C[C@@H]2C)CC3)cc(C)c1F (stereo partly drawn) [Compound 62] | 7.87
25 | Cc1cc(-n2nc3c(c2-n2ccn(-c4ccc5c(c4)C=CS5(=O)=O)c2=O)[C@H](C)N(C(=O)c2cc4cc([C@@H]5CCOC(C)(C)C5)ccc4n2[C@@]2(c4noc(=O)[nH]4)C[C@@H]2C)CC3)cc(C)c1F [Compound 62a] | 6.65
26 | Cc1cc(-n2nc3c(c2-n2ccn(-c4ccc5c(c4)C=CS5(=O)=O)c2=O)[C@H](C)N(C(=O)c2cc4cc([C@H]5CCOC(C)(C)C5)ccc4n2[C@@]2(c4noc(=O)[nH]4)C[C@@H]2C)CC3)cc(C)c1F [Compound 62b] | 8.34
27 | Cc1cc(-n2nc3c(c2-n2ccn(-c4ccc(N(C)C(=O)C5CC5)c(F)c4)c2=O)[C@H](C)N(C(=O)c2cc4cc(C5CCOC(C)(C)C5)ccc4n2[C@@]2(c4noc(=O)[nH]4)C[C@@H]2C)CC3)cc(C)c1F (stereo partly drawn) [Compound 63] | 8.06
28 | Cc1cc(-n2nc3c(c2-n2ccn(-c4ccc(N(C)C(=O)C5CC5)c(F)c4)c2=O)[C@H](C)N(C(=O)c2cc4cc([C@@H]5CCOC(C)(C)C5)ccc4n2[C@@]2(c4noc(=O)[nH]4)C[C@@H]2C)CC3)cc(C)c1F [Compound 63a] | 6.84
29 | Cc1cc(-n2nc3c(c2-n2ccn(-c4ccc(N(C)C(=O)C5CC5)c(F)c4)c2=O)[C@H](C)N(C(=O)c2cc4cc([C@H]5CCOC(C)(C)C5)ccc4n2[C@@]2(c4noc(=O)[nH]4)C[C@@H]2C)CC3)cc(C)c1F [Compound 63b] | 8.19
30 | Cc1cc(-n2nc3c(c2-n2ccn(-c4ccc(N(C)C5CC5)c(C(F)(F)F)c4)c2=O)[C@H](C)N(C(=O)c2cc4cc(C5CCOC(C)(C)C5)ccc4n2[C@@]2(c4nc(=O)o[nH]4)C[C@@H]2C)CC3)cc(C)c1F (stereo partly drawn) [Compound 64] | 7.54
31 | Cc1cc(-n2nc3c(c2-n2ccn(-c4ccc(N(C)C5CC5)cc4C(F)(F)F)c2=O)[C@H](C)N(C(=O)c2cc4cc(C5CCOC(C)(C)C5)ccc4n2[C@@]2(c4nc(=O)o[nH]4)C[C@@H]2C)CC3)cc(C)c1F (stereo partly drawn) [Compound 65] | 6.19
32 | Cc1cc(-n2nc3c(c2-n2ccn(-c4ccc(N(C)C5CC5)c(OC(F)(F)F)c4)c2=O)[C@H](C)N(C(=O)c2cc4cc(C5CCOC(C)(C)C5)ccc4n2[C@@]2(c4noc(=O)[nH]4)C[C@@H]2C)CC3)cc(C)c1F (stereo partly drawn) [Compound 66] | 7.17
33 | Cc1cc(-n2nc3c(c2-n2ccn(-c4ccc(N(C)C5CC5)c(Cl)c4)c2=O)[C@H](C)N(C(=O)c2cc4cc(C5CCOC(C)(C)C5)ccc4n2[C@@]2(c4nc(=O)o[nH]4)C[C@@H]2C)CC3)cc(C)c1F (stereo partly drawn) [Compound 67] | 7.17
